Tests used:
[1] = system: GFAP; assay: GFAP expression in C6 glioma cells (immuno-fluorescent staining and RT-PCR), differentiation marker; assay type: cell-based, rat
Protocol: After the C6 glioma cells were incubated with 10 µg/mL NBM-HD-1 for 24 hours, they were fixed and analyzed by the traditional immuno-fluorescent staining method. Staining of glia was carried out by using glial-specific GFAP antibody (SIGMA) as the primary antibody and a fluorescence labeled rabbit immuno-globulin (SIGMA) as the secondary antibody to bind with the primary antibody. The cells which are GFAP-positive were excited by a specific light source to emit fluorescence. Also, the nuclei were stained with DAPI. […] In contrast with the control group, more GFAP proteins were detected in the photos of the cells being treated with 10 µg/mL of NBM-HD-1.
The GFAP mRNA expression was examined by RT-PCR.

[2] = system: HDAC; assay: HDAC activity assay (fluorometric kit) on nuclear extracts of treated C6 glioma cells; assay type: cell-based, rat; details: C6 glioma cells treated 24 hours, nuclear extract, fluorescence (Fig. 6)
Protocol: The C6 glioma cells were treated with different doses of NBM-HD-1 and sodium butyrate (SB). After 24 hours, the cells were harvested to extract the nuclear proteins by NucBuster™ Protein Extraction Kit (Novagen) as described by the manufacturer's instructions. These extracts were then used in HDAC Activity Assay Kit (Calbiochem) to analyze their HDAC (histone deacetylase) inhibition activities. The HDAC fluorometric substrate, which comprises an acetylated lysine side chain, was incubated with extracted nuclear protein first. Deacetylation of the substrate sensitized the substrate, so that, in the second step, treatment with the Lysine Developer produced a fluorophore. The fluorophore can easily be analyzed by using a fluorescence plate reader. […] Inhibition of HDAC has been implicated in the induction of differentiation in cancer cells. In this experiment, a well-known compound for HDAC inhibition, sodium butyrate, was used as a positive control.

[3] = system: human giloblastoma DBTRG-05MG cancer cells; assay: Inhibition of growth and change of morphology of DBTRG-05MG cells; assay type: cell-based
Protocol: The human giloblastoma DBTRG-05MG cancer cells were cultured in RPMI medium 1640 (Gibco) supplemented with penicillin G, streptomycin sulphate, 0.5 mM of L-glutamine and 10% fetal bovine serum (FBS; Gibco), 100mh/L sodium pyruvate (Gibco), and 1% NEAA (Gibco) at 37 °C, 5% CO2 and 95% relative humidity. For these experiments, the cells were seeded at a density of 3×10^5 per well of 6-well plates. After 24 hours, the cells were treated with different concentrations of NBM-HD-1 and 4 mM sodium butyrate. The cells were observed and counted after 72 hours. […] In 05MG cells (Fig. 7(A)), after incubation with 2.5 µg/mL (Fig. 7(A)-b), 5 µg/mL (Fig. 7(A)-c) and 10 µg/mL (Fig.7(A)-d) of NBM-HD-1 for 72 hours, the density of the cells reduced dramatically in comparison with that of the control group (Fig. 7(A)-a). The 05MG cells in the experimental group also changed to become longer than those in the control group.

[4] = system: breast cancer MCF-7 cells; assay: Inhibition of growth and change of morphology of MCF-7 cells; assay type: cell-based, human
Protocol: The breast cancer MCF-7 cells, were cultured in Dulbecco's modified Eagle's medium (DMEM; Gibco) supplemented with penicillin G, streptomycin sulphate, 0.5 mM of L-glutamine and 10% fetal bovine serum (FBS; Gibco) at 37 °C, 5% CO2 and 95% relative humidity. The cells were seeded at a density of 3×10^5 per well of 6-well plates. After 24 hours, the cells were treated with different concentrations of compound NBM-HD-1 and 4mM sodium butyrate being used as the positive control. The cells were observed after 48 hours and counted after 96 hours. […] In Fig. 8(A), after the cells were incubated with 2.5 µg/mL (Fig. 8(A)-b), 5 µg/mL (Fig. 8(A)-c) and 10 µg/mL (Fig. 8(A)-d) of NBM-HD-1 for 48 hours, the density of MCF-7 cells reduced dramatically in comparison with that of the control group (Fig. 8(A)-a). The morphology of the MCF-7 cells in the experimental group changed in comparison with that in the control group. […] The results of the cell counting (FIG. 8(B)) indicate that, similar to sodium butyrate, NBM-HD-1 inhibits cell growth.
MCF-7 cancer cells were seeded at a density of 3×10^5 per well in 6-well plates. After 24 hours, the cells were treated with different concentrations of compound NBM-HD-2 and 4mM sodium butyrate being used as the positive control. The cells were observed and counted after 72 hours. […] In Fig. 13(A), after the cells were incubated with 2.5 µg/mL (Fig. 13(A)-c), 5 µg/mL (Fig. 13(A)-d), 7.5 µg/mL (Fig. 13(A)-e) and 10 µg/mL (Fig. 13(A)-f) of NBM-HD-2 for 72 hours, the density of MCF-7 cells reduced dramatically in comparison with that of the control group (Fig. 13(A)-a). The morphology of the MCF-7 cells in the experimental group changed in comparison with that in the control group.
MCF-7 cancer cells were seeded at a density of 3×10^5 per well of 6-well plates. After 24 hours, the cells were treated with different concentrations of compound NBM-HD-3 and 4mM sodium butyrate, which was being used as the positive control. The cells were observed and counted after 72 hours. […] In Fig. 14(A), after the cells were incubated with 2.5 µg/mL (Fig. 14(A)-c), 5 µg/mL (Fig. 14(A)-d), 7.5 µg/mL (Fig. 14(A)-e) and 10 µg/mL (Fig. 14(A)-f) of NBM-HD-3 for 72 hours, the density of MCF-7 cells reduced dramatically in comparison with that of the control group (Fig. 14(A)-a). The morphology of the MCF-7 cells in the experimental group changed in comparison with that in the control group. […] The results of the cell counting (FIG. 14(B)) indicate that, similar to sodium butyrate, NBM-HD-3 inhibits cell growth.

COc1cc2c(c(OC)c1CCC(C)(C)O)C(=O)C[C@@H](c1ccc(OC)c(OC)c1C/C=C(\C)CCCC(C)(C)O)O2 [NBM-HD-1]
GFAP expression (immuno-fluorescent staining) ([1]; 10 µg/mL, 24 hours (Fig. 4(A))): can induce the GFAP expression of C6 glioma cancer cells | GFAP mRNA expression ([1]; RT-PCR (Fig. 4(B))): increased in a dose-dependent manner | HDAC activity [2]: significantly inhibits HDAC activity | morphology of 05MG cancer cells ([3]; 2.5, 5 and 10 µg/mL, 72 hours (Fig. 7(A))): change the morphology of 05MG cancer cells | growth of 05MG cells ([3]; NBM-HD-1 2.5, 5 and 10 µg/mL, sodium butyrate 4 mM, 72 hours, density and cell counting (Fig. 7)): can inhibit the growth of 05MG cells in a dose-dependent manner | morphology of MCF-7 cells ([4]; 2.5, 5 and 10 µg/mL, 48 hours (Fig. 8(A))): change their morphology | growth of MCF-7 cancer cells ([4]; NBM-HD-1 2.5, 5 and 10 µg/mL, sodium butyrate 4mM, observed after 48 hours, counted after 96 hours (Fig. 8)): can inhibit the growth of MCF-7 cancer cells in a dose-dependent manner
